In US10953027B2, “Active agents and methods of their use for the treatment of metabolic disorders and nonalcoholic fatty liver disease” (Flagship Pioneering Innovations V, Inc., priority 2018, dated 2021):

Columns and labels:
[1] = Assay 3. Fecal Incubation Stability; assay type: in vitro ADME; settings: 1 or 10 μM, human fecal slurry, anaerobic
Male DIO mice = test: In vivo evaluation for glucose disposal and lipidemia in DIO mice (Example 11); settings: for Fasting blood glucose levels (time 0 from OGTT): 28 days, 16 hour fast; for change in body weight from baseline: 30 days; for glucose AUC (0-120 min): OGTT day 28, glucose 2.0 g/kg PO; for Cholesterol / HDL / LDL / NEFA / Triglycerides: terminal (fed) serum
Description: The DIO mice were prepared by feeding male C57BL/6 mice a high fat diet (HFD, Research Diets D12492) from 6-14 weeks of age. DIO mice were housed individually and maintained on the HFD through the duration of study. A twelve-hour light cycle was maintained with room temperature maintained at 22-25° C. All of the mice were acclimated to the facility for 5 days prior to starting the study.
Following 5 days of facility acclimation, DIO mice were randomized into 8 groups of 10 based on body weight and blood glucose for assignment to treatment, as shown in Table 9:
All treatments were administered admixed in HFD (Research Diets, New Brunswick N.J.) and were provided ad libitum for 30 days. Drinking water for group 7 was supplemented with 1, 3 Butanediol at 3% concentration.
Body weight was recorded at baseline and twice weekly thereafter. Feed and water intakes were recorded each Monday, Wednesday, and Friday.
Blood samples (<3 μL) were obtained one hour post dose by tail clip at baseline and weekly thereafter for measurement of fed blood glucose by StatStrip. Additional anti-coagulated blood samples (100 μl, EDTA di-potassium salt) were obtained by tail clip one hour post-dose at baseline, day 14 and day 30. Anti-coagulated samples were quick frozen and stored on dry ice.
Animals were subjected to a 16 hour fast for performance of an oral glucose tolerance test (OGTT) on day 28. Blood samples were obtained via tail clip just prior to (8 am) and 15, 30, 60, 90, and 120 minutes post-glucose load (2.0 g/kg, PO) for assay of whole blood glucose (StatStrip). Feed was returned following last sample.
Animals were terminated on day 30-31 using CO2 inhalation and induction of pneumothorax. Terminal blood samples were obtained by cardiac puncture. Whole blood was processed to serum and analyzed for serum cholesterol, triglycerides, high density lipoprotein (HDL), low density lipoprotein (LDL) and non-esterified fatty acids (NEFA) using AU480 clinical analyzer.
Organ weights (liver, spleen, subcutaneous fat, inguinal fat, abdominal fat, and epididymal fat) were recorded. Sections of each fat were frozen or fixed in 4% paraformaldehyde/PBS, pH 6.9; Fat samples were placed on dry ice. Fixed liver samples (4% paraformaldehyde) were sent to Premier Laboratories for H&E staining and scoring for steatosis, inflammation and fibrosis. Spleen samples were prepared in ice cold 5% bovine serum albumin (BSA) in PBS or 4% paraformaldehyde. Sections of brain, heart, lung, and small and large intestine were fixed in 10% formalin.
All data are represented as group mean±SEM. Data were analyzed using JMP (SAS software). All normalizations were calculated using terminal body weight.
Baseline differences among groups were identified using Tukey-Kramer Hsd<0.05. Treatment effects compared to control were determined using Oneway ANOVA (*, p<0.05) followed by Dunnett's test where appropriate.

Male FATZO mice = test: In vivo FATZO DM2/obesity study (Example 5); settings: in HFD ad libitum, after 28 days; blood glucose 0-120 minutes
Description: Male FATZO mice (Crown Bio) of 11-12 weeks old were selected for Diabetes Mellitus Type 2 (DM2) and obesity study. Mice were randomized into 9 groups based on body weight and blood glucose level as shown below. Compounds were administered in high fat diet (HFD: D12492) and provided to mice ad libitum until study termination. Body weight was recorded at the baseline and then twice weekly thereafter. Blood glucose level was measured at 0, 15, 30, 60, 90, and 120 minutes at the end of the study.

HFD-fed C57BL/6 mice = test: In vivo evaluation in HFD-fed C57BL/6 mice (Example 3); settings: 6% in HFD ad libitum, 8 week
Description: Animals were allowed free access to food and drinking water for the entire 8 week study. Animals were weighed on a weekly basis, and food and drinking water consumption monitored. Plasma and stool samples were collected at the beginning of the study, mid-study, and day of termination. These samples were used for the measurement of the disease makers.
Disease markers were also assessed in liver tissues collected from mice as follows. Liver tissues from mice were collected, fixed by immersion in 10% neutral buffered formalin. Fixed tissue specimens were sent to a histological processing laboratory (Premier Laboratory, Longmont, Colo.), where they were paraffin embedded, sectioned (approximately 4 μm), mounted, and stained with hematoxylin and eosin (H&E) using standard methods.
Liver sections (2) for each animal were scored from a scan of the H&E-stained slide for inflammation, steatosis (macrovesicular vacuolation) and ballooning ([…] vacuolation) using a modified grading scale based on human biopsy scoring (Brunt et al., Am J Clin Pathol, 128:837-47, 2007). Inflammation was scored 0=no inflammation, 1=minimal (1-3 foci of scattered (lobar) inflammatory cells), 2=mild (3 to 10 scattered foci of inflammatory cells with or without portal/periportal inflammation), 3=moderate (>10 scattered (lobar) foci of inflammatory cells and/or marked portal/periportal inflammation. Steatosis was graded (as in Brunt et al., Am J Clin Pathol, 128:837-47, 2007) as follows: 0=no steatosis, grade 1: ≤33%; grade 2: >33%, <66%; 3: ≥66%. Ballooning was scored as follows: 0=no ballooning, 1=rare/few, and 2=many hepatocytes with microvesicular vacuolation.

CC(=O)O[C@H]1OC[C@H](OC(C)=O)[C@H](OC(C)=O)[C@H]1OC(C)=O [Compound 53, (2R,3R,4S,5S)-tetrahydro-2H-pyran-2,3,4,5-tetrayl Tetraacetate]
Assay 3 (% Remaining at 24 h) [1]: A (A: <25% of the tested compound remaining) | Abdominal fat (% BW) (Male DIO mice; 5% in HFD): *1.9 ± 0.2 % BW | Blood glucose (fed) change compared to baseline (Male DIO mice; 5% in HFD): −12.5±2.2% | Epididymal fat (% BW) (Male DIO mice; 5% in HFD): 4.1 ± 0.4 % BW | Inguinal fat (% BW) (Male DIO mice; 5% in HFD): 0.84 ± 0.11 % BW | Subcutaneous fat (% BW) (Male DIO mice; 5% in HFD): 4.0 ± 0.6 % BW | Fasting blood glucose levels (time 0 from OGTT) (Male DIO mice; 5% in HFD): 90.8 ± 5.7 mg/dL | change in body weight from baseline (Male DIO mice; 5% in HFD): −1.8±3.2% | glucose AUC (0-120 min) (Male DIO mice; 5% in HFD): 30151.5 ± 1680 mg/dL/min | Cholesterol (Male DIO mice; 5% in HFD): 163.3 ± 10.3 mg/dL | HDL (Male DIO mice; 5% in HFD): 88.9 ± 2.7 mg/dL | LDL (Male DIO mice; 5% in HFD): *6.5 ± 0.7 mg/dL | NEFA (Male DIO mice; 5% in HFD): *0.98 ± 0.05 mEq/L | Triglycerides (Male DIO mice; 5% in HFD): 84.8 ± 5.5 mg/dL

CC(=O)Oc1cc(OC(C)=O)c2c(=O)c(OC(C)=O)c(-c3ccc(OC(C)=O)c(OC(C)=O)c3)oc2c1 [Compound 14, [2-acetoxy-4-(3,5,7-triacetoxy-4-oxo-chromen-2-yl)phenyl] acetate]
OGTT (AUC) (Male FATZO mice): 65323 | Abdominal fat (% BW) (Male DIO mice; 6% in HFD): *0.98 ± 0.2 % BW | Blood glucose (fed) change compared to baseline (Male DIO mice; 6% in HFD): −23.1±4.9% | Epididymal fat (% BW) (Male DIO mice; 6% in HFD): *2.6 ± 0.3 % BW | Inguinal fat (% BW) (Male DIO mice; 6% in HFD): *0.40 ± 0.06 % BW | Subcutaneous fat (% BW) (Male DIO mice; 6% in HFD): *2.2 ± 0.4 % BW | Fasting blood glucose levels (time 0 from OGTT) (Male DIO mice; 6% in HFD): 63.1 ± 1.9 mg/dL | change in body weight from baseline (Male DIO mice; 6% in HFD): −11.9±1.3% | glucose AUC (0-120 min) (Male DIO mice; 6% in HFD): 25720.5 ± 895.5 mg/dL/min | Cholesterol (Male DIO mice; 6% in HFD): *121.5 ± 9.4 mg/dL | HDL (Male DIO mice; 6% in HFD): 79.4 ± 4.0 mg/dL | LDL (Male DIO mice; 6% in HFD): *4.9 ± 0.4 mg/dL | NEFA (Male DIO mice; 6% in HFD): *0.69 ± 0.03 mEq/L | Triglycerides (Male DIO mice; 6% in HFD): *64.0 ± 2.8 mg/dL

CC(=O)Oc1cc(OC(C)=O)c2c(c1)O[C@H](c1cc(OC(C)=O)c(OC(C)=O)c(OC(C)=O)c1)[C@H](OC(=O)c1cc(OC(C)=O)c(OC(C)=O)c(OC(C)=O)c1)C2 [Compound 4, [(2R,3R)-5,7-diacetoxy-2-(3,4,5-triacetoxyphenyl)chroman-3-yl] 3,4,5-triacetoxybenzoate]
Assay 3 (% Remaining at 24 h) [1]: A (A: <25% of the tested compound remaining) | ballooning score (FIG. 4) (HFD-fed C57BL/6 mice): lower ballooning score than the animals fed a high fat diet only | glucose tolerance (FIG. 2) (HFD-fed C57BL/6 mice): exceeded that of animals in the HFD+rosiglitazone | histological analysis of the livers: steatosis (FIGS. 5A-5G) (HFD-fed C57BL/6 mice): significantly lower steatosis | percentage change in weight (FIG. 1) (HFD-fed C57BL/6 mice): underwent weight loss | steatosis score (FIG. 3) (HFD-fed C57BL/6 mice): lower steatosis score than the animals fed high fat diet only | OGTT (AUC) (Male FATZO mice): 59443 | Abdominal fat (% BW) (Male DIO mice; 0.6% in HFD): 2.1 ± 0.2 % BW | Blood glucose (fed) change compared to baseline (Male DIO mice; 0.6% in HFD): −15.6±3.1% | Epididymal fat (% BW) (Male DIO mice; 0.6% in HFD): 4.7 ± 0.2 % BW | Inguinal fat (% BW) (Male DIO mice; 0.6% in HFD): 0.99 ± 0.17 % BW | Subcutaneous fat (% BW) (Male DIO mice; 0.6% in HFD): 4.9 ± 0.4 % BW | change in body weight from baseline (Male DIO mice; 0.6% in HFD): 13.5±2.0% | Abdominal fat (% BW) (Male DIO mice; 2% in HFD): 2.4 ± 0.1 % BW | Blood glucose (fed) change compared to baseline (Male DIO mice; 2% in HFD): −9.0±3.9% | Epididymal fat (% BW) (Male DIO mice; 2% in HFD): 4.5 ± 0.2 % BW | Inguinal fat (% BW) (Male DIO mice; 2% in HFD): 0.93 ± 0.08 % BW | Subcutaneous fat (% BW) (Male DIO mice; 2% in HFD): 5.5 ± 0.5 % BW | change in body weight from baseline (Male DIO mice; 2% in HFD): 16.4±1.1% | Abdominal fat (% BW) (Male DIO mice; 6% in HFD): 2.2 ± 0.1 % BW | Blood glucose (fed) change compared to baseline (Male DIO mice; 6% in HFD): −4.3±3.0% | Epididymal fat (% BW) (Male DIO mice; 6% in HFD): 4.7 ± 0.3 % BW | Inguinal fat (% BW) (Male DIO mice; 6% in HFD): 0.95 ± 0.08 % BW | Subcutaneous fat (% BW) (Male DIO mice; 6% in HFD): 5.0 ± 0.6 % BW | change in body weight from baseline (Male DIO mice; 6% in HFD): 15.7±1.0% | Cholesterol (Male DIO mice; 0.6% in HFD): 193.9 ± 11.0 mg/dL | HDL (Male DIO mice; 0.6% in HFD): 94.4 ± 4.0 mg/dL | LDL (Male DIO mice; 0.6% in HFD): 9.2 ± 0.9 mg/dL | NEFA (Male DIO mice; 0.6% in HFD): 1.2 ± 0.04 mEq/L | Triglycerides (Male DIO mice; 0.6% in HFD): 97.7 ± 10.1 mg/dL | Cholesterol (Male DIO mice; 2% in HFD): 208.2 ± 7.2 mg/dL | HDL (Male DIO mice; 2% in HFD): 99.0 ± 3.6 mg/dL | LDL (Male DIO mice; 2% in HFD): 10.7 ± 0.9 mg/dL | NEFA (Male DIO mice; 2% in HFD): 1.2 ± 0.06 mEq/L | Triglycerides (Male DIO mice; 2% in HFD): 91.1 ± 8.4 mg/dL | Cholesterol (Male DIO mice; 6% in HFD): 200.4 ± 14.2 mg/dL | HDL (Male DIO mice; 6% in HFD): 91.5 ± 5.1 mg/dL | LDL (Male DIO mice; 6% in HFD): 12.3 ± 0.9 mg/dL | NEFA (Male DIO mice; 6% in HFD): 1.1 ± 0.04 mEq/L | Triglycerides (Male DIO mice; 6% in HFD): 89.9 ± 5.7 mg/dL
